The structures appear in SMILES notation.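 Interpolation was linear, between the two tested concentrations surrounding the appropriate level; five concentrations were tested over 48 hours in 96-well plates. TGI marks complete inhibition of growth.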 Where a SMILES comes first, the peptide text is derived from it.

Among the test systems are COLO 205 colon; UO-31 renal; NCI-H23 lung; SK-OV-3 ovarian; HCT-15 colon; HCC-2998 colon; NCI/ADR-RES ovarian; OVCAR-3 ovarian; SR leukemia; SNB-75 CNS.
What all share (assay): NCI-60 cell line screen, 48 h

In the case of `C/C(N=Nc1nc2ccccc2[nH]1)=C1/C=CC=CN1O`, the TGI with COLO 205 colon, in the assay on UO-31 renal, in the assay on NCI-H23 lung, in the assay with SK-OV-3 ovarian, with HCT-15 colon and in the assay on HCC-2998 colon was greater than 100 µM throughout. Besides, the TGI with NCI/ADR-RES ovarian, with OVCAR-3 ovarian and in the assay with SR leukemia was greater than 100 µM throughout.

`N#Cc1c(N)nc2c(c1-c1ccc(Br)cc1)CSc1ccccc1-2`: the TGI with COLO 205 colon was 32.2 µM; in the assay on UO-31 renal, greater than 100 µM; in the assay with NCI-H23 lung it was greater than 100 µM; in the assay on SK-OV-3 ovarian it was greater than 100 µM; with HCT-15 colon it was greater than 100 µM; in the assay with NCI/ADR-RES ovarian, greater than 100 µM. Also, the TGI in the assay on OVCAR-3 ovarian, with SR leukemia and in the assay on SNB-75 CNS was greater than 100 µM throughout.

On to `CC(=O)Oc1ccc(CO)cc1OC(C)=O`, for which the TGI with COLO 205 colon, in the assay with UO-31 renal, in the assay with SK-OV-3 ovarian, in the assay on HCT-15 colon, with OVCAR-3 ovarian and in the assay with SR leukemia was greater than 100 µM throughout. For the same compound, the TGI in the assay on SNB-75 CNS is greater than 100 µM.

With `CCOC(=O)C(=O)NCCCN1CCOCC1`, the TGI with COLO 205 colon, with UO-31 renal, in the assay on NCI-H23 lung, in the assay on SK-OV-3 ovarian, in the assay with HCT-15 colon and in the assay with HCC-2998 colon was greater than 100 µM in each case. Also, the TGI in the assay with OVCAR-3 ovarian and with SNB-75 CNS was greater than 100 µM throughout.

Regarding `CC(=O)c1ccc2c(c1)N(CCCN1CCN(CCO)CC1)c1ccccc1C2`, the TGI in the assay with COLO 205 colon turned out to be 31.8 µM; with UO-31 renal it was 38.9 µM; in the assay with NCI-H23 lung, 30.1 µM; with SK-OV-3 ovarian it was 30.5 µM; in the assay with HCT-15 colon, 28.8 µM; in the assay with NCI/ADR-RES ovarian, 27.7 µM. Also, the TGI worked out at 29.5 µM in the assay with OVCAR-3 ovarian and 30.5 µM in the assay on SNB-75 CNS.

For the compound `COC(=S)OC1CC(n2cnc3c(N)ncnc32)OC1CO[Si](C)(C)C(C)(C)C` (stereo not given), the TGI in the assay on COLO 205 colon was 39.8 µM; in the assay with UO-31 renal, 40.8 µM; in the assay with NCI-H23 lung it was 38.7 µM; in the assay with SK-OV-3 ovarian, 60.1 µM; with HCT-15 colon it was 49.8 µM; in the assay with NCI/ADR-RES ovarian, 82.6 µM. In addition, the TGI was 31 µM in the assay with OVCAR-3 ovarian and greater than 100 µM with SR leukemia.

Take `O=C1/C(=C\c2ccc(F)cc2)CCOc2c1ccc1ccccc21`: the TGI in the assay with COLO 205 colon was greater than 100 µM; in the assay with UO-31 renal, greater than 100 µM; with NCI-H23 lung, 39.4 µM; in the assay on SK-OV-3 ovarian it was greater than 100 µM; with HCT-15 colon it was greater than 100 µM; in the assay with HCC-2998 colon, 17.7 µM. Besides, the TGI in the assay on NCI/ADR-RES ovarian was 45.9 µM; in the assay on OVCAR-3 ovarian it was 27.9 µM; in the assay with SNB-75 CNS, greater than 66.1 µM.

For the compound `COC(OC)C1OC(CO)C(n2cc(F)c(=O)[nH]c2=O)C1O` (stereo not given), the TGI in the assay on COLO 205 colon is 28.5 µM; in the assay with UO-31 renal it was greater than 100 µM; in the assay with NCI-H23 lung it was greater than 100 µM; in the assay with SK-OV-3 ovarian it was greater than 100 µM; in the assay on HCT-15 colon, greater than 100 µM; in the assay on HCC-2998 colon, greater than 100 µM. For the same compound, the TGI in the assay on NCI/ADR-RES ovarian, with OVCAR-3 ovarian and in the assay with SNB-75 CNS was greater than 100 µM throughout.

For `COC(CN(C=O)[C@@H](c1ccc(Cl)cc1)c1cc2ccccc2o1)OC`, the TGI with COLO 205 colon came out at 33.5 µM; in the assay on UO-31 renal it was 31.2 µM; in the assay with NCI-H23 lung, 39.2 µM; in the assay on SK-OV-3 ovarian, 26.6 µM; with HCT-15 colon it was 32.8 µM; in the assay on NCI/ADR-RES ovarian, 41.9 µM. In addition, the TGI is 26.8 µM with OVCAR-3 ovarian and 42.7 µM in the assay with SNB-75 CNS.

Take `CC1(C)CCC[C@]2(C)[C@@H]1CC[C@@]13O[C@@H]1C1=C(CO)C(=O)OC1=C[C@@H]23`: the TGI was found to be 30.6 µM in the assay on COLO 205 colon; 26 µM in the assay on UO-31 renal; 46.5 µM in the assay with NCI-H23 lung; 46.5 µM in the assay with SK-OV-3 ovarian; 63.7 µM in the assay on HCT-15 colon; 46.7 µM with HCC-2998 colon. In addition, the figures for the TGI in the assay on NCI/ADR-RES ovarian and in the assay with SNB-75 CNS were 37.7 µM and 88.4 µM, respectively.

On to `O=c1[nH]c(Nc2ccc(Cl)cc2)nc2nc[nH]c12`, for which the TGI with COLO 205 colon, in the assay on NCI-H23 lung, in the assay with SK-OV-3 ovarian, in the assay on HCT-15 colon, in the assay on HCC-2998 colon and in the assay with NCI/ADR-RES ovarian was greater than 100 µM throughout. The TGI in the assay on OVCAR-3 ovarian, with SR leukemia and with SNB-75 CNS was greater than 100 µM in each case.

As for `COC(=O)C[C@H](COCc1ccccc1)NC(=O)C[C@H](COCc1ccccc1)NC(=O)OC(C)(C)C`, the TGI in the assay on COLO 205 colon was greater than 100 µM; with UO-31 renal, greater than 100 µM; with NCI-H23 lung, greater than 100 µM; with SK-OV-3 ovarian, 59.8 µM; in the assay on HCT-15 colon, greater than 100 µM; in the assay on NCI/ADR-RES ovarian it was 72.2 µM. Further, the TGI was 86.9 µM in the assay with OVCAR-3 ovarian, greater than 100 µM with SR leukemia and 61.2 µM with SNB-75 CNS.

`Cc1cc(=O)[nH]c(/N=C(\N)Nc2ccc(Cl)cc2)n1`: the TGI in the assay on UO-31 renal, in the assay on NCI-H23 lung, in the assay with HCT-15 colon, in the assay on HCC-2998 colon, with NCI/ADR-RES ovarian and in the assay on OVCAR-3 ovarian was greater than 100 µM each time. The TGI in the assay on SR leukemia is greater than 100 µM.

On to `O=C1c2ccccc2C(C2c3ccccc3C(=O)c3cc(Br)ccc32)c2ccc(Br)cc21` (stereo not given), for which the TGI in the assay on COLO 205 colon, with UO-31 renal, with NCI-H23 lung, with SK-OV-3 ovarian, with HCT-15 colon and with HCC-2998 colon was greater than 100 µM in each case. Further, the TGI with NCI/ADR-RES ovarian, in the assay on OVCAR-3 ovarian and with SNB-75 CNS was greater than 100 µM each time.

With `CCC(C)C(NC(=O)C1CCCN1C(=O)C(CC(C)C)NC(=O)C(CC(C)C)NC(=O)C(N)CC(C)C)C(=O)NC(C(=O)NCC(=O)NC(CC(N)=O)C(=O)NC(CC(C)C)C(=O)NC(CC(C)C)C(=O)NC(CC(C)C)C(N)=O)C(C)C` (stereo not given) (H-LLLPIVGNLLL-NH2; configuration not given here), the TGI with COLO 205 colon, in the assay on UO-31 renal, in the assay on NCI-H23 lung, with SK-OV-3 ovarian, with HCT-15 colon and with NCI/ADR-RES ovarian was greater than 50 µM each time. For the same compound, the TGI in the assay on OVCAR-3 ovarian and in the assay with SR leukemia was greater than 50 µM each time.
